Data reported in patent EP0376166A1, “Condensed quinoline system compound and process of preparation thereof” (MECT CORPORATION, priority 1988, dated 1990).

Key:
KB Cell = experiment: Inhibition of multiplication (growth) of KB cells, in vitro; format: cell-based, human; details: concentration for 50% growth inhibition vs control; for IC50: Homo sapiens, 72 h, compound added Day 1, cells counted Day 4, read-out: Conc.(ED50)
Procedure: KB cells, carcinomatous cell tumors, were transferred to in vitro floatation incubator systems, and added respectively with compounds of Examples 1 to 33. The results of cultivation added with these compounds were compared with the results of the control which was not added with any compound.
Cell used: KB Cell (Originating from human mouth epidermal cancer) Culture medium: Eagles minimal essential medium (MEM) supplemented with 10% calf serum Cultivation: 37°C carbon dioxide gas incubator (5% CO₂)
Day 0: KB cells were diluted in the culture medium to adjust the KB cell density to 2 x 10⁴/ml. Three ml of the cell suspension was inoculated in each of 60 mm plastic dishes. Two dishes per standard dosage were used. Day 1: Test compound was added to the medium so that the final concentrations were set to 100, 30, 10, 3 and 1 µg/ml. Day 4: Cells were scraped off from the dish using trypsin, and the cell number was countered using a Corter counter.
In generally accordance with the stipulations set forth by the National Cancer Institute (NCI), U.S.A., the concentration of compound necessary for exerting 50% growth inhibition (ED₅₀) compared to the control was determined. A compound was judged as effective when ED₅₀ was less than 4 µg/ml.

P-388 = experiment: Prolongation of life span in P-388 implanted mice; format: in vivo, CDF mouse; details: for cure: cured mice per group of 6; for response vs control in vivo at 3.12 mg/kg: dosage 3.12 mg/kg; for response vs control in vivo at 6.25 mg/kg: dosage 6.25 mg/kg
Procedure: Animal used: CDF mouse (6 mice/group) Tumor: P-388 Number of implanted cells: 10⁶ cells/mouse Implanted site: i.p. Day of administration: Day 1 and Day 5 Dosage: LD₅₀ or 400 mg/kg/day at the maximum

[1] = P388, ip, T/C %, dosage 50 mg/kg, Day 1 and Day 5, P-388 10⁶ cells/mouse i.p., read-out: Ratio of Life Prolongation (%)
[2] = P388, ip, T/C %, dosage 100 mg/kg, Day 1 and Day 5, P-388 10⁶ cells/mouse i.p., read-out: Ratio of Life Prolongation (%)
[3] = P388, ip, T/C %, dosage 200 mg/kg, Day 1 and Day 5, P-388 10⁶ cells/mouse i.p., read-out: Ratio of Life Prolongation (%)
[4] = P388, ip, T/C %, dosage 400 mg/kg, Day 1 and Day 5, P-388 10⁶ cells/mouse i.p., read-out: Ratio of Life Prolongation (%)
[5] = P388, ip, T/C %, dosage 12.5 mg/kg, Day 1 and Day 5, P-388 10⁶ cells/mouse i.p., read-out: Ratio of Life Prolongation (%)
[6] = P388, ip, T/C %, dosage 25 mg/kg, Day 1 and Day 5, P-388 10⁶ cells/mouse i.p., read-out: Ratio of Life Prolongation (%)
[7] = P388, ip, T/C %, Day 1 and Day 5, P-388 10⁶ cells/mouse i.p., read-out: Ratio of Life Prolongation (%)

IC50 (KB Cell)	Molecule	response vs control in vivo at 50 mg/kg (P-388; [1])	response vs control in vivo at 100 mg/kg (P-388; [2])	response vs control in vivo at 200 mg/kg (P-388; [3])	response vs control in vivo at 12.5 mg/kg (P-388; [5])	response vs control in vivo at 25 mg/kg (P-388; [6])	also measured
< 0.3 µg/mL	COc1cc(NC(C)=O)ccc1Nc1c2ccccc2nc2c1[nH]c1ccccc12 [Compound 15]	263%	240%	76%			cure (P-388; dosage 100 mg/kg): 1/6
< 0.3 µg/mL	COc1cc(NS(C)(=O)=O)ccc1Nc1c2ccccc2nc2c1[nH]c1cccc(C)c12 [Compound 16, 6-(4-methanesulfonamide-2-methoxyanilino)-1-methylindolo[3,2-b]quinoline]	269%			240%	288%	cure (P-388; dosage 12.5 mg/kg): 2/6; cure (P-388; dosage 25 mg/kg): 2/6
< 0.3 µg/mL	COc1cc(NS(C)(=O)=O)ccc1Nc1c2ccccc2nc2c1[nH]c1cc(C)ccc12 [Compound 17, 6-(4-methanesulfoneamide-2-methoxyanilino)-3-methylindolo[3,2-b]quinoline]	75%			153%	77%	
< 0.3 µg/mL	COc1cc(NS(C)(=O)=O)ccc1Nc1c2ccccc2nc2c1[nH]c1ccc([N+](=O)[O-])cc12 [Compound 18, 6-(4-methanesulfonamide-2-methoxyanilino)-2-nitroindolo[3,2-b]quinoline]						cure (P-388; dosage 12.5 mg/kg): 1/6
< 0.3 µg/mL	COc1cc(NS(C)(=O)=O)ccc1Nc1c2ccccc2nc2c1[nH]c1ccc(F)cc12 [Compound 19, 2-fluoro-6-(4-methanesulfonamide-2-methoxyanilino)indolo[3,2-b]quinoline]				313%	252%	cure (P-388; dosage 12.5 mg/kg): 3/6; cure (P-388; dosage 25 mg/kg): 2/6
< 0.3 µg/mL	COc1cc(O)ccc1Nc1c2ccccc2nc2c1[nH]c1ccccc12 [Compound 20]				179%	131%	cure (P-388; dosage 25 mg/kg): 1/6
< 0.3 µg/mL	COc1cc(OC(C)=O)ccc1Nc1c2ccccc2nc2c1[nH]c1ccccc12 [Compound 21]	185%				179%	cure (P-388; dosage 50 mg/kg): 1/6
< 0.3 µg/mL	COc1cc(NS(C)(=O)=O)ccc1Nc1c2ccccc2nc2c1[nH]c1ccc(N)cc12 [Compound 22, 2-amino-6-(4-methanesulfonamide-2-methoxyanilino)indolo[3,2-b]quinoline]				171%	200%	

Further lines, the molecule ahead of its results:

Molecule	IC50 (KB Cell)	response vs control in vivo at 50 mg/kg (P-388; [1])	response vs control in vivo at 100 mg/kg (P-388; [2])	response vs control in vivo at 200 mg/kg (P-388; [3])	response vs control in vivo at 12.5 mg/kg (P-388; [5])	response vs control in vivo at 25 mg/kg (P-388; [6])	also measured
6-(4-methanesulfonamide-anilino)-indeno[3,2-b]quinoline [Compound 5]							Conc.(ED50) (KB Cell; compound added Day 1, cells counted Day 4, 4320 min): < 0.3 µg/mL; Ratio of Life Prolongation (%) (P-388; T/C %, dosage 25 mg/kg, Day 1 and Day 5, P-388 10⁶ cells/mouse i.p.): 140%; Ratio of Life Prolongation (%) (P-388; T/C %, dosage 50 mg/kg, Day 1 and Day 5, P-388 10⁶ cells/mouse i.p.): 135%; Ratio of Life Prolongation (%) (P-388; T/C %, dosage 100 mg/kg, Day 1 and Day 5, P-388 10⁶ cells/mouse i.p.): 163%; Ratio of Life Prolongation (%) (P-388; T/C %, dosage 200 mg/kg, Day 1 and Day 5, P-388 10⁶ cells/mouse i.p.): 172%; Ratio of Life Prolongation (%) (P-388; T/C %, dosage 400 mg/kg, Day 1 and Day 5, P-388 10⁶ cells/mouse i.p.): 165%
COc1cc(NS(C)(=O)=O)ccc1Nc1c2c(nc3c(C)cccc13)-c1c(C)cccc1C2 [Compound 1, 6-4-(methanesulfonamide-2-methoxyanilino)-1,10-dimethylindeno[3,2-b]quinoline]	< 0.3 µg/mL	210%	290%	240%			cure (P-388; dosage 100 mg/kg): 1/6; cure (P-388; dosage 200 mg/kg): 1/6
COc1cc(NS(C)(=O)=O)ccc1Nc1c2c(nc3c(C)cccc13)-c1ccccc1C2 [Compound 2]	< 0.3 µg/mL		257%	99%			response vs control in vivo at 400 mg/kg (P-388; [4]): 97%; cure (P-388; dosage 100 mg/kg): 1/6
COC(=O)Nc1ccc(Nc2c3c(nc4ccccc24)-c2ccccc2C3)c(OC)c1 [Compound 3]	< 0.3 µg/mL		151%	97%			response vs control in vivo at 400 mg/kg (P-388; [4]): 0%
COc1cc(N)ccc1Nc1c2c(nc3ccccc13)-c1ccccc1C2 [Compound 4]	< 0.3 µg/mL	210%			134%	168%	
CN(C)c1cc(NS(C)(=O)=O)ccc1Nc1c2c(nc3ccccc13)-c1ccccc1C2 [Compound 6, 6-(4-methanesulfonamide-2-dimethylaminoanilino)-indeno[3,2-b]quinoline]	< 0.3 µg/mL		169%	247%			response vs control in vivo at 400 mg/kg (P-388; [4]): 148%; cure (P-388; dosage 200 mg/kg): 2/6
COc1cc(NCS(=O)O)ccc1Nc1c2c(nc3ccccc13)-c1ccccc1C2 [Compound 7]	< 0.3 µg/mL	111%	108%	111%			
COc1cc(NCC(=O)O)ccc1Nc1c2c(nc3ccccc13)-c1ccccc1C2 [Compound 8]	< 0.3 µg/mL		175%	178%			response vs control in vivo at 400 mg/kg (P-388; [4]): 155%
COc1cc(NS(C)(=O)=O)ccc1Nc1c2cccc(C)c2nc2c1[nH]c1ccccc12 [Compound 9]	< 0.3 µg/mL	305%			198%	235%	response vs control in vivo at 1.56 mg/kg (P-388; P388, ip, T/C %, dosage 1.56 mg/kg, Day 1 and Day 5, P-388 10⁶ cells/mouse i.p., read-out: Ratio of Life Prolongation (%)): 131%; response vs control in vivo at 3.12 mg/kg (P-388; [7]): 165%; response vs control in vivo at 6.25 mg/kg (P-388; [7]): 168%; cure (P-388; dosage 25 mg/kg): 1/6; cure (P-388; dosage 50 mg/kg): 4/6
COc1cc(NS(C)(=O)=O)ccc1Nc1c2cccc(C)c2nc2c1[nH]c1cccc(C)c12 [Compound 10, 6-(4-methanesulfonamide-2-methoxyanilino)-1,10-dimethylindolo[3,2-b]quinoline]	< 0.3 µg/mL	223%	260%		165%	203%	response vs control in vivo at 3.12 mg/kg (P-388; [7]): 109%; response vs control in vivo at 6.25 mg/kg (P-388; [7]): 145%; cure (P-388; dosage 100 mg/kg): 1/6
COc1cc(NS(C)(=O)=O)ccc1Nc1c2cccc(C)c2nc2c1[nH]c1cc(C)ccc12 [Compound 11, 6-(4-methanesulfonamide-2-methoxyanilino)-3,10-dimethylindolo[3,2-b]quinoline]	< 0.3 µg/mL	315%			315%	294%	cure (P-388; dosage 12.5 mg/kg): 1/6; cure (P-388; dosage 25 mg/kg): 2/6; cure (P-388; dosage 50 mg/kg): 1/6
COc1cc(NS(C)(=O)=O)ccc1Nc1c2ccccc2nc2c1[nH]c1ccc(Cl)cc12 [Compound 12]	< 0.3 µg/mL	315%			231%	242%	cure (P-388; dosage 25 mg/kg): 1/6; cure (P-388; dosage 50 mg/kg): 1/6
COc1cc(NS(C)(=O)=O)ccc1Nc1c2ccccc2nc2c1[nH]c1ccc(C)cc12 [Compound 13, 6-(4-methanesulfonamide-2-methoxyanilino)-2-methylindolo[3,2-b]quinoline]	< 0.3 µg/mL	115%			189%	192%	
COC(=O)Nc1ccc(Nc2c3ccccc3nc3c2[nH]c2ccccc23)c(OC)c1 [Compound 14]	< 0.3 µg/mL	282%	266%	221%			cure (P-388; dosage 100 mg/kg): 1/6
